Source: publication PMC4703546 (Bioorganic & medicinal chemistry, 2015)
pIC50: −log10 of the molar value.

Key:
[1] = test system: all c-Met-dependant cell lines; experiment: MTT proliferation assay, panel summary; type: cell-based; settings: Homo sapiens, read-out: IC50 range, antiproliferative activity
[2] = test system: HL-60 cells; settings: HL-60, 5 and 10 μM; cited from earlier work
[3] = test system: c-Met in MDA-MB-231 cells; experiment: Western blot analysis of c-Met and p-c-Met levels; type: cell-based, human; settings: MDA-MB-231, 15 and 30 μM, 48 h
[4] = test system: non-tumorigenic human mammary epithelial cells MCF-10A
[5] = test system: MDA-MB-231/GFP; experiment: Orthotopic athymic nude mouse xenograft model; type: in vivo, athymic nude mice; settings: 10 mg/kg i.p. 3 times per week

## O=C1N[C@@H](Cc2c[nH]c3ccccc23)C(=O)N/C1=C/c1cnc[nH]1 [DHTD (3), dehydrohistidyltryptophenyl-diketopiperazine]
[1]
  pIC50: 4.40 to 4.70

## C=CC(C)(C)[C@@]12C=C(O)C(=O)N3/C(=C/c4cnc[nH]4)C(=O)N[C@]31N(OC)c1ccccc12 [Meleagrin (1), meleagrin]
[2]
  cytotoxic mechanism by flow cytometric analysis: arrested the cell cycle through G2/M phase
[1]
  pIC50: 5.05 to 5.74
[3]
  effect on phosphorylated (activated) c-Met level: significant reduction
  effect on total c-Met level: no effect
[4]
  toxicity towards MCF-10A cells: minimal
[5]; listed as meleagrin
  effect on body weight gains and gross phenotype: not adversely affecting
[5]; listed as meleagrin (1)
  effect on body weight gains and gross phenotype: no significant changes

## C=CC(C)(C)[C@@]12C=C(O)C(=O)N3/C(=C/c4cn([C@H]5C[C@@]6(O)O[C@@H]7C[C@@]6(C)[C@]6(C[C@]8(C)CCC(C)(C)[C@@H]8[C@@H]76)[C@@H]5C)cn4)C(=O)N[C@]31N(OC)c1ccccc12 [Meleagrin B]
[2]
  cytotoxic mechanism by flow cytometric analysis: induced HL-60 cells apoptosis

## C=CC(C)(C)[C@@]12C[C@H]3C(=O)N/C(=C/c4c[nH]cn4)C(=O)N3[C@@H]1Nc1ccccc12 [Roquefortine C (2), roquefortine C]
[1]
  pIC50: 4.40 to 4.70
